ChEMBL document CHEMBL1201862, “PubChem BioAssay data set” (2004)
Values belong to the compound of their own block, whether it stands above or below them. Active and inactive are the calls of the source. Unless noted, the rule behind the calls is not given here.

Legend:
[1] = molecular target: T1, Carboxy-terminal domain RNA polymerase II polypeptide A small phosphatase 1 (Homo sapiens, UniProt Q9GZU7); assay: CTDSP1 inhibitors, concentration-response, biochemical, absorbance readout, ultra-high-throughput screen actives (AID 540297); type: functional
T1 sequence (Q9GZU7 whole entry): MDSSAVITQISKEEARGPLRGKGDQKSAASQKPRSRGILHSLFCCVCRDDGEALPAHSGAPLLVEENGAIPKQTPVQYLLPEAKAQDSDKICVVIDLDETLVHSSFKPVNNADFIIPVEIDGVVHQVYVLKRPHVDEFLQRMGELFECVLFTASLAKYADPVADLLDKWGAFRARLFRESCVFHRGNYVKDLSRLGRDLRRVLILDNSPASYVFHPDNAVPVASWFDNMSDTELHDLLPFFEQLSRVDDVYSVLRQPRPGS

[2] = molecular target: ORF 73 (Human herpesvirus 8, UniProt O40947); assay: KSHV LANA DNA-binding disruption – biochemical, fluorescence polarization, cherry-picked samples, dose response (AID 504725); set-up: species or system Human gammaherpesvirus 8;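 also: fluorescence polarization of a labeled DNA duplex reporting LANA DNA binding; potency is for inhibitors that block LANA binding to the DNA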
[3] = HEK-293T cell viability reduction – luminescence, B-cell screen hits, cytotoxicity control for BCR NF-kB inhibitor project, dose response (AID 489021); type: functional, cell-based;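 also: HEK-293T cells carrying an NF-kB luciferase reporter; cells exposed to compound for about 14 hours before viability readout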
[4] = molecular target: G-protein coupled receptor 35 (Homo sapiens, UniProt Q9HC97); assay: inhibition of zaprinast-stimulated GPR35 beta-arrestin translocation – imaging, U2OS, beta-arrestin-GFP, zaprinast agonist, primary screen (AID 2058); type: functional;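 also: antagonist potency meaning inhibition of agonist-induced arrestin redistribution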
[5] = reduction of Shn3 3'UTR-driven luciferase in osteoblasts – cell-based, Clone20 osteoblasts, firefly luciferase, cherry-picked, dose response (AID 624132); type: functional;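 also: firefly luciferase luminescence from reporter carrying the Shn3 3'UTR in osteoblasts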
[6] = non-specific 3'UTR reporter inhibition in Clone20-Shn3RL – cell-based, Renilla luciferase, cherry-picked, counter-screen for Shn3 inhibitor project, dose response (AID 624133); type: functional
[7] = loss of viability in HepG2 cells – cell-based, CellTiter-Glo, cherry-picked, cytotoxicity control for Shn3 inhibitor project, dose response (AID 624134); type: functional
[8] = molecular target: T2, Heat shock factor protein 1 (Mus musculus, UniProt P38532); assay: enhancement of HSF1-driven luciferase signal – cell-based, NIH3T3, luminescence, dose retest, confirmation (AID 435004); type: functional;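 also: stress induced by proteasome inhibitor MG132 added 30 min after compound; luciferase reporter driven by HSF1 response element in NIH3T3 cells; actives raise luminescence as potentiators of the MG132 stress response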
T2 sequence (P38532 whole entry): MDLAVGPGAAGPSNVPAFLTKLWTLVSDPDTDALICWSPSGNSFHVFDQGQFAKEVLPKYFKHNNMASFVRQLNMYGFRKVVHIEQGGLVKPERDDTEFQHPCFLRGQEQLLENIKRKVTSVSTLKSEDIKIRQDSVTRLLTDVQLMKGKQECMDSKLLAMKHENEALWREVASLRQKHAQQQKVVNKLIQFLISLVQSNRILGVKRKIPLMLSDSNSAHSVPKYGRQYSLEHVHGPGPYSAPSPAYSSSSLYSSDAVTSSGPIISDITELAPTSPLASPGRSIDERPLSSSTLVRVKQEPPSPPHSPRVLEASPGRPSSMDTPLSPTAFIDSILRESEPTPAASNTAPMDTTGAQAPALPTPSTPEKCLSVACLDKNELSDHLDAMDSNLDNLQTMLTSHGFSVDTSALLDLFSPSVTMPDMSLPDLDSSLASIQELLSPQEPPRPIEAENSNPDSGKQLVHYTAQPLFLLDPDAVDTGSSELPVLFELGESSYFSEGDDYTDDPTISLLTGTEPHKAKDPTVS

[9] = molecular target: E3 ubiquitin-protein ligase Mdm2/Protein Mdm4 (Homo sapiens, UniProt O15151+Q00987); assay: disruption of Mdm2/MdmX protein binding – luminescence detection, dose response (AID 504593); type: functional
Chain of E3 ubiquitin-protein ligase Mdm2/Protein Mdm4 (Q00987 whole entry): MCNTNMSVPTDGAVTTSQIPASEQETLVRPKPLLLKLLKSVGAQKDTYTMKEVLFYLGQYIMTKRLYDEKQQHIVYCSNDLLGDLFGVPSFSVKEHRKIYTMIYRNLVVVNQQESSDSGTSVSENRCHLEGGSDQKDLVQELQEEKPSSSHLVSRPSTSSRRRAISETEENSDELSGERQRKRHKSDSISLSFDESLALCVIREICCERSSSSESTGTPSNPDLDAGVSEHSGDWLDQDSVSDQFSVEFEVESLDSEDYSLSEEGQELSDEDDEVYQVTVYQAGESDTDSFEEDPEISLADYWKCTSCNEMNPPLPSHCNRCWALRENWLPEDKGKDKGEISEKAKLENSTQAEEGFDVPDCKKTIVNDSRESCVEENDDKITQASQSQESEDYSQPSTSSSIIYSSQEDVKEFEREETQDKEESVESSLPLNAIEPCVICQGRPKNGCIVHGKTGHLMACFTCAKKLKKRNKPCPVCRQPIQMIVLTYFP
Chain of E3 ubiquitin-protein ligase Mdm2/Protein Mdm4 (O15151 whole entry): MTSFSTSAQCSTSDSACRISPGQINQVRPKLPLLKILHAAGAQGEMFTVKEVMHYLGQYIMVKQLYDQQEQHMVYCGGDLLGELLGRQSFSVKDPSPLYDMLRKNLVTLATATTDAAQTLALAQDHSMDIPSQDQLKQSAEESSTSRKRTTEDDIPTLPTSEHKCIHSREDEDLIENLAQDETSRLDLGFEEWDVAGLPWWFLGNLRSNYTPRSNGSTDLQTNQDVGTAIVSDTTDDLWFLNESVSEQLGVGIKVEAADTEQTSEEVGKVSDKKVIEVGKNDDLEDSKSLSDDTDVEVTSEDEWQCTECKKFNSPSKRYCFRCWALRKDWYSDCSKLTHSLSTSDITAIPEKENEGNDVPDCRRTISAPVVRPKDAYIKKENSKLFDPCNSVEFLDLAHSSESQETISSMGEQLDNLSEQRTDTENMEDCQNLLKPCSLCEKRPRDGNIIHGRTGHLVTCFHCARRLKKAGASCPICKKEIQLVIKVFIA

[10] = molecular target: Female germline-specific tumor suppressor gld-1 (Caenorhabditis elegans, UniProt Q17339); assay: blockers of GLD-1/TGE RNA complex formation – biochemical, fluorescence polarization, C. elegans, dose response (AID 2802);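 also: fluorescence polarization of labeled TGE RNA bound by purified gld-1 protein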
[11] = molecular target: Protein Rev (Human immunodeficiency virus type 1 group M subtype B (isolate HXB2)(HIV-1), UniProt P04618); assay: blockers of HIV Rev/RRE RNA complex – biochemical, fluorescence polarization, HIV-1, dose response (AID 434976); set-up: species or system Human immunodeficiency virus 1
[12] = ADP-Glo luciferase signal interference – biochemical, luminescence, cherry-picked samples, set 2, artefact control for CDK5 inhibitor project, dose response (AID 504546); type: functional, cell-based
[13] = molecular target: Cyclin-dependent kinase 5/CDK5 activator 1 (Homo sapiens, UniProt Q00535); assay: blockade of human CDK5 activity – biochemical, cherry-picked samples, set 2, dose response (AID 504545)
[14] = molecular target: Nucleotide-binding oligomerization domain-containing protein 1 (Homo sapiens, UniProt Q9Y239); assay: blockers of NOD1 pathway activity – revised, SAR follow-up (AID 2333); type: functional
Chain of Nucleotide-binding oligomerization domain-containing protein 1 (Q9Y239 whole entry, the tested form may be a part): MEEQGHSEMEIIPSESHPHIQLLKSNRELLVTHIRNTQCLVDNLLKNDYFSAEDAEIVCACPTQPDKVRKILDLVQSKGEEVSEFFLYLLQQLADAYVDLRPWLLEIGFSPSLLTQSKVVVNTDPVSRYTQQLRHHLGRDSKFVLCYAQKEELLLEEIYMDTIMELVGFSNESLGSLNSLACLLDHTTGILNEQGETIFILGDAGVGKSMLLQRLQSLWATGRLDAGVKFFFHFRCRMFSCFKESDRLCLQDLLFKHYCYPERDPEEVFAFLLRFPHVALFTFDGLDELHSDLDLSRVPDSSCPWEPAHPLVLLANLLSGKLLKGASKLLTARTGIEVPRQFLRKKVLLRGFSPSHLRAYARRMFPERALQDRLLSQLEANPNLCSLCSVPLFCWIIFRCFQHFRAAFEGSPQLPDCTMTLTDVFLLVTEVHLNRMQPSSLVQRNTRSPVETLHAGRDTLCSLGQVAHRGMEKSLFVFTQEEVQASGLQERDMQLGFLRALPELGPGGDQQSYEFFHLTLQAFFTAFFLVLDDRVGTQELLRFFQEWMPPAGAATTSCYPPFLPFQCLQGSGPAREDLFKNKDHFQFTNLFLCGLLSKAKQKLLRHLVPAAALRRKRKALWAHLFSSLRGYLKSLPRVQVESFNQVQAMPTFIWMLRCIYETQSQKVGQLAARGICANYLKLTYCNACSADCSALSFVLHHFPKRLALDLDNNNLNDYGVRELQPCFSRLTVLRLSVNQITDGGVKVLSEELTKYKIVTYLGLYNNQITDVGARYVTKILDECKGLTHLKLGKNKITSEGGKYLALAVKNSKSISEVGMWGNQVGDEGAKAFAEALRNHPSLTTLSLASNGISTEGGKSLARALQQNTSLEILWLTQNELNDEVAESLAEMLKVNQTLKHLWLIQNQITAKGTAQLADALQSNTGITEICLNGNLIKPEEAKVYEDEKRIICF

[15] = system: HEK293; assay: cells; settings: Homo sapiens;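 also: cells exposed to compound for 14 hours overnight before viability readout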
[16] = molecular target: Nucleotide-binding oligomerization domain-containing protein 2 (Homo sapiens, UniProt Q9HC29); assay: PubChem AID 2334; type: functional
Chain of Nucleotide-binding oligomerization domain-containing protein 2 (Q9HC29 whole entry, the tested form may be a part): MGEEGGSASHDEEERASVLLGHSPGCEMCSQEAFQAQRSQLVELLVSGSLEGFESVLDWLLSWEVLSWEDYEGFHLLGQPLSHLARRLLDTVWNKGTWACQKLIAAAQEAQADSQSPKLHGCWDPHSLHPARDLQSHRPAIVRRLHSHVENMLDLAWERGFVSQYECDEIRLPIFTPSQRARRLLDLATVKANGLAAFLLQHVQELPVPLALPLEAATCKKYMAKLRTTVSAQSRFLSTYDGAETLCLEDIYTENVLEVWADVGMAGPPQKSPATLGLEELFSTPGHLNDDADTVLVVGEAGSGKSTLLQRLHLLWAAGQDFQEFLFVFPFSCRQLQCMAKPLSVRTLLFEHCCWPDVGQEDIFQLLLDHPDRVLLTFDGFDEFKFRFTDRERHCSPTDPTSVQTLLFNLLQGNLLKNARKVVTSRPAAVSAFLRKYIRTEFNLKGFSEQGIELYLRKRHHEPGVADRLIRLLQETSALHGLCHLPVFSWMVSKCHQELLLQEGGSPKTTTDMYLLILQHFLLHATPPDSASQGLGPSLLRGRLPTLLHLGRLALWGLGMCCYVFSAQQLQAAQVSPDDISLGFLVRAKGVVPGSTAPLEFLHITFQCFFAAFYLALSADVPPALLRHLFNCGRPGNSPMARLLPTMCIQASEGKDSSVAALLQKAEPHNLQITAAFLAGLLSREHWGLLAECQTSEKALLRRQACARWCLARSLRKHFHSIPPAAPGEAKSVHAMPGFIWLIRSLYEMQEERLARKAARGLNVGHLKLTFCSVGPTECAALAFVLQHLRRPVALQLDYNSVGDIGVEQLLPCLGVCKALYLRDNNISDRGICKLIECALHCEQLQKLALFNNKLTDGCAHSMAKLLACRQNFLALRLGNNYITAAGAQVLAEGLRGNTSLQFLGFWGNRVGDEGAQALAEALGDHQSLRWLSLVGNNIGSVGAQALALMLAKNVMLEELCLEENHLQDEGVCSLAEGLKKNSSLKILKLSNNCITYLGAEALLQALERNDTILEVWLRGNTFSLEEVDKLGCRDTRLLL

[17] = molecular target: Tumor necrosis factor (Homo sapiens, UniProt P01375); assay: analog potency on TNFa NF-kB signaling – cell-based, revised, SAR follow-up (AID 2337); type: functional
Chain of Tumor necrosis factor (P01375 whole entry): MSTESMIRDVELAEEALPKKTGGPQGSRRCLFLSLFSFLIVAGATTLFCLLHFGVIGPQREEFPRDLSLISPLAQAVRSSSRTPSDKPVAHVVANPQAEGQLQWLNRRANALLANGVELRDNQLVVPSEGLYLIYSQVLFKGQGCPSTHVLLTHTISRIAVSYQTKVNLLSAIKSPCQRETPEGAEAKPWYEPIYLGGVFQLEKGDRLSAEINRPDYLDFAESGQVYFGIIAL

[18] = molecular target: 5-hydroxytryptamine receptor 2B (Homo sapiens, UniProt P41595); assay: Late-stage radioligand binding dose response assay to identify inhibitors of NADPH oxidase 1 (NOX1): PDSP screen Ki Set 2. [Related pubchem assays (depositor defined):AID1792, AID1796, AID1823, AID2532, AID2538, AID2539, AID2541, AID2545, AID2556, AID2664, AID2752, AID2773, AID2808, AID2819, AID434953, AID434974, AID434992, AID434993, AID434997 …
[19] = molecular target: Muscarinic acetylcholine receptor M1 (Homo sapiens, UniProt P11229); assay: as above
[20] = molecular target: T3, Rac GTPase-activating protein 1 (Homo sapiens, UniProt Q9H0H5); assay: blockers of MgcRacGAP-driven Rac1 GTP hydrolysis – biochemical, ADP Hunter fluorescence, primary and confirmatory, confirmation (AID 624330); type: functional
T3 sequence (Q9H0H5 whole entry): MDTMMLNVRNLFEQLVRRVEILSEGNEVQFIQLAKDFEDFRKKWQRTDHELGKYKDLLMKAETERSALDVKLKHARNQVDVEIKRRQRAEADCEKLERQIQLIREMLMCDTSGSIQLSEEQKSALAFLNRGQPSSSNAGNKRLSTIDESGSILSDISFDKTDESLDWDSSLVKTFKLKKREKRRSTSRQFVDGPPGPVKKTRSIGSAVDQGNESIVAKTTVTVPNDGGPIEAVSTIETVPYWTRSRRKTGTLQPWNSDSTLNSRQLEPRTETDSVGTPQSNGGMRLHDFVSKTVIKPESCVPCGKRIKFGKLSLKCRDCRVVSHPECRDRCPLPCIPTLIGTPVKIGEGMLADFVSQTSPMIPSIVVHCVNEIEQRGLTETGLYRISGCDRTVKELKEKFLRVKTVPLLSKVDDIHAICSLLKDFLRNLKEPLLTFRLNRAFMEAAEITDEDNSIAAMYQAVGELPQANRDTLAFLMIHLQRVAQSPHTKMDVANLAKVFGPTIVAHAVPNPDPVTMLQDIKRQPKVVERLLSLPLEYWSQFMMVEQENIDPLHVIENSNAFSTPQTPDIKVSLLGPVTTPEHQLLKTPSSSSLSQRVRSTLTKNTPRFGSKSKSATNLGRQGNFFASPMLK

[21] = molecular target: Muscarinic acetylcholine receptor M2 (Homo sapiens, UniProt P08172); assay: Late-stage radioligand binding dose response assay to identify inhibitors of NADPH oxidase 1 (NOX1): PDSP screen Ki Set 2. [Related pubchem assays (depositor defined):AID1792, AID1796, AID1823, AID2532, AID2538, AID2539, AID2541, AID2545, AID2556, AID2664, AID2752, AID2773, AID2808, AID2819, AID434953, AID434974, AID434992, AID434993, AID434997 …
[22] = system: HT-29; assay: Late-stage luminescence-based cell-based dose response assay to identify inhibitors of NADPH oxidase 1 (NOX1): Cytotoxicity assay 2.; type: functional; settings: Homo sapiens
[23] = molecular target: Lysosomal acid glucosylceramidase (Homo sapiens, UniProt P04062); assay: Dose response cell-based high throughput screening assay to identify enhancers of beta-glucosidase activity. [Related pubchem assays: 784 ]; type: functional
Chain of Lysosomal acid glucosylceramidase (P04062 whole entry): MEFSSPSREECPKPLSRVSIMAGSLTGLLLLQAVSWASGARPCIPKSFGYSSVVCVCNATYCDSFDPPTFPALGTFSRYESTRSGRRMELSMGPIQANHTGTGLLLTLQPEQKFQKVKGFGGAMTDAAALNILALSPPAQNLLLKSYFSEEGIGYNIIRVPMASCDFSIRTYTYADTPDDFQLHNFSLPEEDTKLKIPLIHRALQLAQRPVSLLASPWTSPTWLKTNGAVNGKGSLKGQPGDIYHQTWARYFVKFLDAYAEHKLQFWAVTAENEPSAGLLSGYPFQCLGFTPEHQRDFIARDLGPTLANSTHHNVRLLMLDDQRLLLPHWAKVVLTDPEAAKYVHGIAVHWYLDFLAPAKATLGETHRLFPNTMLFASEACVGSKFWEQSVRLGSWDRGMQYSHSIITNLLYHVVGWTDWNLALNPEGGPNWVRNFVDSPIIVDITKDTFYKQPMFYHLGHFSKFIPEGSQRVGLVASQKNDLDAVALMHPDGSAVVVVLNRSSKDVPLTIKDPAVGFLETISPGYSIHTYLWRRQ

[24] = molecular target: D(3) dopamine receptor (Homo sapiens, UniProt P35462); assay: Late-stage radioligand binding dose response assay to identify inhibitors of NADPH oxidase 1 (NOX1): PDSP screen Ki Set 2. [Related pubchem assays (depositor defined):AID1792, AID1796, AID1823, AID2532, AID2538, AID2539, AID2541, AID2545, AID2556, AID2664, AID2752, AID2773, AID2808, AID2819, AID434953, AID434974, AID434992, AID434993, AID434997 …
Chain of D(3) dopamine receptor (P35462 whole entry): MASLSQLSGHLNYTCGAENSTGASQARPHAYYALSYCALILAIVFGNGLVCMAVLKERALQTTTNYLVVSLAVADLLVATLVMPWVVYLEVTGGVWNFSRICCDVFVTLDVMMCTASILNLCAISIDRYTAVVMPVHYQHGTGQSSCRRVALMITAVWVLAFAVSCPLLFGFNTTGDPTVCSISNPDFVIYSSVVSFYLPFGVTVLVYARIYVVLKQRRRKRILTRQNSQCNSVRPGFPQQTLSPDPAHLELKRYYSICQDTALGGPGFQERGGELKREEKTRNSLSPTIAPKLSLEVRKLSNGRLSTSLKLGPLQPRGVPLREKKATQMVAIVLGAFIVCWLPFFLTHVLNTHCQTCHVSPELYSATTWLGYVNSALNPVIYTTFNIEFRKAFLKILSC

[25] = molecular target: Alpha-2B adrenergic receptor (Homo sapiens, UniProt P18089); assay: as above
Chain of Alpha-2B adrenergic receptor (P18089 whole entry): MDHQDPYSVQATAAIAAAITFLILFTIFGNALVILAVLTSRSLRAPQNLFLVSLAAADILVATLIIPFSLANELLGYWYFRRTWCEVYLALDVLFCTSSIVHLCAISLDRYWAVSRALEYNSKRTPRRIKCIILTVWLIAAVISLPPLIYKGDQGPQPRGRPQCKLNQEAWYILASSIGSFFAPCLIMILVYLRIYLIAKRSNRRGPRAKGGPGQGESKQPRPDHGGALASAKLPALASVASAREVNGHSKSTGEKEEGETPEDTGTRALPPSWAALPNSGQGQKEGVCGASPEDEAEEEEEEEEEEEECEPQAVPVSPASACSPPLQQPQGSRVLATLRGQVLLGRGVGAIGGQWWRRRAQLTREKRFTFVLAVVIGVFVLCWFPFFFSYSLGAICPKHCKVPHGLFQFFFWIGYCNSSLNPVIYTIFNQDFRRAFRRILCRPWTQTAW

[26] = viability of uninfected HEp-2 cells – cell-based, HTS, cytotoxicity control for RSV inhibitor project, dose response (AID 2410); type: functional; settings: human respiratory syncytial virus
[27] = molecular target: Alpha-2C adrenergic receptor (Homo sapiens, UniProt P18825); assay: Late-stage radioligand binding dose response assay to identify inhibitors of NADPH oxidase 1 (NOX1): PDSP screen Ki Set 2. [Related pubchem assays (depositor defined):AID1792, AID1796, AID1823, AID2532, AID2538, AID2539, AID2541, AID2545, AID2556, AID2664, AID2752, AID2773, AID2808, AID2819, AID434953, AID434974, AID434992, AID434993, AID434997 …
[28] = molecular target: Alpha-2A adrenergic receptor (Homo sapiens, UniProt P08913); assay: as above
[29] = molecular target: Kappa-type opioid receptor (Homo sapiens, UniProt P41145); assay: as above
Chain of Kappa-type opioid receptor (P41145 whole entry): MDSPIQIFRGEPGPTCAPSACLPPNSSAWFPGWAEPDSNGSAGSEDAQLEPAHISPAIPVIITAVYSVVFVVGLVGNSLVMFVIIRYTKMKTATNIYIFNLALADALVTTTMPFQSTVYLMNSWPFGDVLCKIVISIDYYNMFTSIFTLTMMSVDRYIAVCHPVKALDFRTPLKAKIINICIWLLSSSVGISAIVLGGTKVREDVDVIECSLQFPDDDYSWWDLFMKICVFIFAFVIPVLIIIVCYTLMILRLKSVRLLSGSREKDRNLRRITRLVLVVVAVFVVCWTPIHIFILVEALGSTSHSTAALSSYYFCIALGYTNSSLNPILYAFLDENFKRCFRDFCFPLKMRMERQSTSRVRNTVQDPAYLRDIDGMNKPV

IC50 [1]: 3.21 µM (active) | AC50 [2]: 67.7 µM (active)
SMILES: N=C1/C(=C/c2ccc(-c3cccc(C(=O)O)c3)o2)C(=O)N=C2SC(CC(=O)N3CCOCC3)=NN12

SMILES: O=C1CCCc2c1[nH]c1ccc(CN3CCCCC3)cc21
IC50 [3]: > 80 µM (inactive)

IC50 [4]: 2.14 µM (active)
SMILES: COc1ccc2nc3oc(C(=O)N4CCN(c5cccc(Cl)c5)CC4)cc3cc2c1

SMILES: CCOC(=O)/C=C/C(=O)OCC(=O)NC(c1ccccc1)c1ccccc1
AC50 [5]: 5.14 µM (active) | AC50 [6]: 22 µM (active) | AC50 [7]: > 70 µM (inactive) | EC50 [8]: 13.4 µM (active) | IC50 [9]: 3.28 µM (active)

SMILES: CCOC(=O)c1cc2c(ccn2C)n1CC(=O)N(Cc1ccccc1)c1ccc(F)cc1
IC50 [10]: > 59.6 µM (inactive) | IC50 [11]: > 75.4 µM (not active)

SMILES: Cc1occc1C(=O)N/N=C/c1ccc(N(C)C)cc1
AC50 [12]: 26.4 µM (active) | AC50 [13]: 19.5 µM (active)

SMILES: O=C(Nc1sc2c(c1C(=O)O)CCCC2)c1cccs1
IC50 [14]: > 20 µM (inactive) | IC50 [15]: > 20 µM (inactive) | IC50 [16]: > 20 µM (inactive) | IC50 [17]: > 20 µM (inactive)

Ki [18]: 0.3 µM (active) | Ki [19]: > 10 µM (inactive) | IC50 [20]: 31.6 µM (active) | Ki [21]: > 10 µM (inactive) | EC50 [23]: > 50 µM (not active) | Ki [24]: > 10 µM (inactive) | Ki [25]: > 10 µM (inactive) | Ki [27]: > 10 µM (inactive) | Ki [28]: > 10 µM (inactive) | Ki [29]: > 10 µM (inactive)
SMILES: CC(=O)c1ccc2c(c1)Nc1ccccc1S2
CC50 [22]: > 20 µM (not active) | CC50 [26]: 18.5 µM (active)
